Test results as given in patent US8324264B1, “Inhibitors of bacterial biofilms and related methods” (Sequoia Sciences, Inc., priority 2011, dated 2012).
Converted amounts (≈) assume the structure as drawn.

Assays:
P. aeruginosa biofilms = experiment: Biofilm growth assay (spreading biofilm on semi-solid agar), P. aeruginosa; format: cell-based; conditions: biofilm growth assay, overnight 37° C., vs negative controls, Tables 1-5; for IC85: Pseudomonas aeruginosa, read-out: P. aeruginosa: concentration that reduces the area of the spreading biofilm by greater than or equal to 85%
Procedure, shortened: (§1)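 Compound added to semi-solid agar: M8 with 0.2% glucose, 100 μM CaCl2, 1 mM MgSO4, 0.5% Casamino acids (P. aeruginosa) or LB with 0.6% agar, 0.5% glucose (E. coli). Center-inoculated with 5 μL overnight culture, incubated overnight at 37 °C; value is concentration (μg/ml) reducing spreading area ≥85% versus negative controls.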

E. coli biofilms = experiment: Biofilm growth assay (spreading biofilm on semi-solid agar), E. coli; format: cell-based; conditions: biofilm growth assay, overnight 37° C., vs negative controls, Tables 1-5; for IC85: Escherichia coli, read-out: E. coli: concentration that reduces the area of the spreading biofilm by greater than or equal to 85%
Procedure, shortened: as §1

Row | SMILES | IC85 (P. aeruginosa biofilms) | IC85 (E. coli biofilms) | P. aeruginosa: concentration that reduces the area of the spreading biofilm by greater than or equal to 85% (P. aeruginosa biofilms) | E. coli: concentration that reduces the area of the spreading biofilm by greater than or equal to 85% (E. coli biofilms)
1 | CNc1[nH]nc2c1C[C@@]1(C)C(CC[C@]3(C)C1CC=C1C4CC(C)(C)CC[C@]4(C(=O)O)CC[C@]13C)C2(C)C (stereo partly shown) [I] | > 16 µg/mL | 8 µg/mL (≈ 15.8 µM) |  | 
2 | CC1(C)CC[C@]2(C(=O)O)CC[C@]3(C)C(=C(c4cccc5c4CCNC5)CC4[C@@]5(C)Cc6c(n[nH]c6N)C(C)(C)C5CC[C@]43C)C2C1 (stereo partly drawn) [Example 47, (4aS,6aS,6bR,13aR)-12-Amino-2,2,6a,6b,9,9,13a-heptamethyl-15-(1,2,3,4-tetrahydroisoquinolin-5-yl)-2,3,4,4a,5,6,6a,6b,7,8,8a,9,11,13,13a,13b,14,15b-octadecahydro-1H-chryseno[1,2-f]indazole-4-a-carboxylic acid] |  |  | 0.5 µg/mL | 1 µg/mL
3 | CC1(C)CC[C@]2(C(=O)O)CC[C@]3(C)C(=C(c4ccccc4CN4CCOCC4)CC4[C@@]5(C)Cc6c(n[nH]c6N)C(C)(C)[C@@H]5CC[C@]43C)[C@@H]2C1 (stereo partly drawn) [Example 59, (4aS,6aS,6bR,8aR,13aR,15bS)-12-Amino-2,2,6a,6b,9,9,13a-heptamethyl-15-(2-(morpholinomethyl)phenyl)-2,3,4,4a,5,6,6a,6b,7,8,8a,9,11,13,13a,13b,14,15b-octadecahydro-1H-chryseno[1,2-f]indazole-4-a-carboxylic acid] |  |  | 0.5 µg/mL | >1 µg/mL
4 | C[C@@H]1CC[C@]2(C(=O)O)CC[C@]3(C)C(=CCC4[C@@]5(C)C[C@H](CO)[C@H](O)C(C)(C)C5CC[C@]43C)C2[C@H]1C (stereo partly shown) [B] |  |  | 4 µg/mL | 8 µg/mL
5 | CC1(C)CC[C@]2(C(=O)O)CC[C@]3(C)C(=C(c4ccoc4CN4CCOCC4)CC4[C@@]5(C)Cc6c(n[nH]c6N)C(C)(C)[C@@H]5CC[C@]43C)[C@@H]2C1 (stereo partly drawn) [Example 32, (4aS,6aS,6bR,8aR,13aR,15bS)-12-Amino-2,2,6a,6b,9,9,13a-heptamethyl-15-(2-(morpholinomethyl)furan-3-yl)-2,3,4,4a,5,6,6a,6b,7,8,8a,9,11,13,13a,13b,14,15b-octadecahydro-1H-chryseno[1,2-f]indazole-4-a-carboxylic acid] |  |  | 0.5 µg/mL | 1 µg/mL
6 | CC1(C)CC[C@]2(C(=O)O)CC[C@]3(C)C(=C(c4cccc(F)c4)CC4[C@@]5(C)Cc6c(n[nH]c6N)C(C)(C)[C@@H]5CC[C@]43C)[C@@H]2C1 (stereo partly drawn) [Example 17, (4aS,6aS,6bR,8aR,13aR,15bS)-12-Amino-15-(3-fluorophenyl)-2,2,6a,6b,9,9,13a-heptamethyl-2,3,4,4a,5,6,6a,6b,7,8,8a,9,11,13,13a,13b,14,15b-octadecahydro-1H-chryseno[1,2-f]indazole-4-a-carboxylic acid] |  |  | 0.5 µg/mL | >2 µg/mL
7 | CC1(C)CC[C@]2(C(=O)n3cnc(S)n3)CC[C@]3(C)C(=CCC4[C@@]5(C)Cc6c(n[nH]c6N)C(C)(C)C5CC[C@]43C)C2C1 (stereo partly drawn) [Compound 76, ((4aS,6aS,6bR,13aR)-12-Amino-2,2,6a,6b,9,9,13a-heptamethyl-2,3,4,4a,5,6,6a,6b,7,8,8a,9,11,13,13a,13b,14,15b-octadecahydro-1H-chryseno[1,2-f]indazol-4-a-yl)(3-mercapto-1H-1,2,4-triazol-1-yl)methanone] | 0.5 µg/mL (≈ 0.867 µM) | 2 µg/mL (≈ 3.47 µM) |  | 
8 | CC1(C)CC[C@]2(C(=O)O)CC[C@]3(C)C(=C(c4ccc(N5CCC(N)CC5)nc4)CC4[C@@]5(C)Cc6c(n[nH]c6N)C(C)(C)C5CC[C@]43C)C2C1 (stereo partly drawn) [Example 57, (4aS,6aS,6bR,13aR)-12-Amino-15-(6-(4-aminopiperidin-1-yl)pyridin-3-yl)-2,2,6a,6b,9,9,13a-heptamethyl-2,3,4,4a,5,6,6a,6b,7,8,8a,9,11,13,13a,13b,14,15b-octadecahydro-1H-chryseno[1,2-f]indazole-4-a-carboxylic acid] |  |  | >2 µg/mL | 1 µg/mL
9 | CC1(C)CC[C@]2(C(=O)O)CC[C@]3(C)C(=C(c4c[nH]cc4CN4CCOCC4)CC4[C@@]5(C)Cc6c(n[nH]c6N)C(C)(C)[C@@H]5CC[C@]43C)[C@@H]2C1 (stereo partly drawn) [Example 33, (4aS,6aS,6bR,8aR,13aR,15bS)-12-Amino-2,2,6a,6b,9,9,13a-heptamethyl-15-(4-(morpholinomethyl)-1H-pyrrol-3-yl)-2,3,4,4a,5,6,6a,6b,7,8,8a,9,11,13,13a,13b,14,15b-octadecahydro-1H-chryseno[1,2-f]indazole-4-a-carboxylic acid] |  |  | 2 µg/mL | 4 µg/mL
10 | CC1(C)CC[C@]2(C(=O)O)CC[C@]3(C)C(=C(c4cccc5[nH]ccc45)CC4[C@@]5(C)Cc6c(n[nH]c6N)C(C)(C)C5CC[C@]43C)C2C1 (stereo partly drawn) [Example 48, (4aS,6aS,6bR,13aR)-12-Amino-15-(1H-indol-4-yl)-2,2,6a,6b,9,9,13a-heptamethyl-2,3,4,4a,5,6,6a,6b,7,8,8a,9,11,13,13a,13b,14,15b-octadecahydro-1H-chryseno[1,2-f]indazole-4-a-carboxylic acid] |  |  | 0.5 µg/mL | 1 µg/mL
11 | CC1(C)CC[C@]2(C(=O)n3ccnc3N)CC[C@]3(C)C(=CCC4[C@@]5(C)Cc6c(n[nH]c6N)C(C)(C)C5CC[C@]43C)C2C1 (stereo partly drawn) [Compound 73, (2-Amino-1H-imidazol-1-yl)((4aS,6aS,6bR,13aR)-12-amino-2,2,6a,6b,9,9,13a-heptamethyl-2,3,4,4a,5,6,6a,6b,7,8,8a,9,11,13,13a,13b,14,15b-octadecahydro-1H-chryseno[1,2-f]indazol-4-a-yl)methanone] | 1 µg/mL (≈ 1.79 µM) | 1 µg/mL (≈ 1.79 µM) |  | 
12 | CCC1=C2[C@@H]3CC(C)(C)CC[C@]3(C(=O)O)CC[C@@]2(C)[C@]2(C)CC[C@H]3C(C)(C)c4n[nH]c(N)c4C[C@]3(C)C2C1 (stereo partly drawn) [Example 14, (4aS,6aS,6bR,8aR,13aR,15bS)-12-Amino-15-ethyl-2,2,6a,6b,9,9,13a-heptamethyl-2,3,4,4a,5,6,6a,6b,7,8,8a,9,11,13,13a,13b,14,15b-octadecahydro-1H-chryseno[1,2-f]indazole-4-a-carboxylic acid] | 0.5 µg/mL (≈ 0.958 µM) | 2 µg/mL (≈ 3.83 µM) |  | 
13 | CC1(C)CC[C@]2(C(=O)O)CC[C@]3(C)C(=C(c4ccc(N5CCNCC5)nc4)CC4[C@@]5(C)Cc6c(n[nH]c6N)C(C)(C)C5CC[C@]43C)C2C1 (stereo partly drawn) [Example 55, (4aS,6aS,6bR,13aR)-12-Amino-2,2,6a,6b,9,9,13a-heptamethyl-15-(6-(piperazin-1-yl)pyridin-3-yl)-2,3,4,4a,5,6,6a,6b,7,8,8a,9,11,13,13a,13b,14,15b-octadecahydro-1H-chryseno[1,2-f]indazole-4-a-carboxylic acid] |  |  | >1 µg/mL | 2 µg/mL
14 | CC1(C)CC[C@]2(C(=O)O)CC[C@]3(C)C(=C(c4ccc5c(c4)CCN5)CC4[C@@]5(C)Cc6c(n[nH]c6N)C(C)(C)[C@@H]5CC[C@]43C)[C@@H]2C1 (stereo partly drawn) [Example 11, (4aS,6aS,6bR,13aR)-12-Amino-15-(indolin-5-yl)-2,2,6a,6b,9,9,13a-heptamethyl-2,3,4,4a,5,6,6a,6b,7,8,8a,9,11,13,13a,13b,14,15b-octadecahydro-1H-chryseno[1,2-f]indazole-4-a-carboxylic acid] | 0.5 µg/mL (≈ 0.818 µM) | 0.5 µg/mL (≈ 0.818 µM) |  | 
15 | CC1(C)CC[C@]2(C(=O)O)CC[C@]3(C)C(=C(c4ccc(N5CCOCC5)nc4)CC4[C@@]5(C)Cc6c(n[nH]c6N)C(C)(C)[C@@H]5CC[C@]43C)[C@@H]2C1 (stereo partly drawn) [Example 54, (4aS,6aS,6bR,8aR,13aR,15bS)-12-Amino-2,2,6a,6b,9,9,13a-heptamethyl-15-(6-morpholinopyridin-3-yl)-2,3,4,4a,5,6,6a,6b,7,8,8a,9,11,13,13a,13b,14,15b-octadecahydro-1H-chryseno[1,2-f]indazole-4-a-carboxylic acid] |  |  | 1 µg/mL | 2 µg/mL
16 | CC1(C)CC[C@]2(C(=O)O)CC[C@]3(C)C(=C(c4ccoc4)CC4[C@@]5(C)Cc6c(n[nH]c6N)C(C)(C)[C@@H]5CC[C@]43C)[C@@H]2C1 (stereo partly drawn) [Example 26, (4aS,6aS,6bR,8aR,13aR,15bS)-12-Amino-15-(furan-3-yl)-2,2,6a,6b,9,9,13a-heptamethyl-2,3,4,4a,5,6,6a,6b,7,8,8a,9,11,13,13a,13b,14,15b-octadecahydro-1H-chryseno[1,2-f]indazole-4-a-carboxylic acid] |  |  | 0.25 µg/mL | 1 µg/mL
17 | CC1(C)CC[C@]2(C(=O)O)CC[C@]3(C)C(=C(c4cn[nH]c4)CC4[C@@]5(C)Cc6c(n[nH]c6N)C(C)(C)[C@@H]5CC[C@]43C)[C@@H]2C1 (stereo partly drawn) [Example 27, (4aS,6aS,6bR,8aR,13aR,15bS)-12-Amino-2,2,6a,6b,9,9,13a-heptamethyl-15-(1H-pyrazol-4-yl)-2,3,4,4a,5,6,6a,6b,7,8,8a,9,11,13,13a,13b,14,15b-octadecahydro-1H-chryseno[1,2-f]indazole-4-a-carboxylic acid] |  |  | 1 µg/mL | >2 µg/mL
